Reference: ChEMBL document CHEMBL5131543, “Studying Lipophilicity Trends of Phosphorus Compounds by 31P-NMR Spectroscopy: A Powerful Tool for the Design of P-Containing Drugs” (J Med Chem, 2022)

Key:
Format in all cases: physicochemical
[1] = […]-water partition coefficient, logP of compound by shake flask method based 31P-NMR analysis; conditions: octanol/water
[2] = Octanol-water partition coefficient, logP of compound at pH 1.3 by shake flask method based 31P-NMR analysis
[3] = Lipophilicity, logD of compound at pH 1.3 by shake flask method based 31P-NMR analysis; conditions: buffer
[4] = Basicity of hydrogen bond, pKHB of compound by IR spectroscopy
[5] = Octanol-water partition coefficient, logP of compound by shake flask method based 31P-NMR analysis
[6] = Lipophilicity, logD of compound at pH 3 by shake flask method based 31P-NMR analysis; conditions: buffer
[7] = Lipophilicity, logD of compound at pH 7.4 by shake flask method based 31P-NMR analysis; conditions: buffer

SMILES: CCOP(=O)(OCC)Oc1ccc(OC)cc1
- logP [1]: 2.14

SMILES: O=P(O)(O)C(O)(c1ccccc1)P(=O)(O)O
- logP [2]: -1.87

SMILES: CCCCCCCC(O)(P(=O)(O)O)P(=O)(O)O
- logD [3]: 0.6

SMILES: CCOP(=S)(OCC)Oc1ccccc1
- logP [1]: 3.34

SMILES: CCOP(=S)(OCC)Oc1ccc(OC)cc1
- logP [1]: 3.37

SMILES: O=P(O)(O)C(O)(c1ccc(F)cc1)P(=O)(O)O
- logD [3]: -1.57

SMILES: CCOP(=O)(OCC)SCC
- logP [1]: 1.42
- pKHB [4]: 2.377

SMILES: CCOP(=O)(OCC)c1ccccc1
- logP [5]: 1.1

SMILES: O=P(O)(O)C(O)(c1cc(F)c(F)c(F)c1)P(=O)(O)O
- logD [3]: -0.69

SMILES: CCOP(=S)(OCC)c1ccccc1
- logP [5]: 3.66

SMILES: CCOP(=S)(OCC)SCC
- logP [1]: 3.38

SMILES: CP(C)(C)=O
- logP [1]: -1.6
- pKHB [4]: 3.444

SMILES: CP(C)(C)=S
- logP [1]: -0.23
- pKHB [4]: 1.533

SMILES: CCNP(=O)(OCC)OCC
- logP [1]: 0.54

SMILES: O=P(O)(O)C(O)(c1ccccc1F)P(=O)(O)O
- logD [3]: -2.16
- logD [6]: -3.25

SMILES: O=P(CCCO)(CCCO)CCCO
- logP [1]: -2.49

SMILES: OCCCP(=[Se])(CCCO)CCCO
- logP [1]: -0.9

SMILES: CP(C)(C)=[Se]
- logP [1]: -0.02
- pKHB [4]: 1.519

SMILES: OCCCP(=S)(CCCO)CCCO
- logP [1]: -1.2

SMILES: CCCCCCCCCC(O)(P(=O)(O)O)P(=O)(O)O
- logD [3]: 1.72

SMILES: CCCCCCC(O)(P(=O)(O)O)P(=O)(O)O
- logD [3]: -0.08

SMILES: C[C@@H]1C[C@H]2[C@@H]3CCC4=CC(=O)C=C[C@]4(C)[C@@]3(F)[C@@H](O)C[C@]2(C)[C@@]1(O)C(=O)COP(=O)(O)O [DEXAMETHASONE SODIUM PHOSPHATE]
- logD [3]: 1.24

SMILES: CCOP(=O)(OCC)Oc1ccc([N+](=O)[O-])cc1 [PARAOXON]
- logP [1]: 2.11

SMILES: CCOP(=S)(OCC)Oc1ccc([N+](=O)[O-])cc1 [PARATHION]
- logP [1]: 3.08

SMILES: CCOP(=O)(OCC)Oc1ccccc1 [PHOSPHORIC ACID DIETHYL ESTER PHENYL ESTER]
- logP [1]: 2.07

SMILES: CC(C)OC(=O)OCOP(=O)(CO[C@H](C)Cn1cnc2c(N)ncnc21)OCOC(=O)OC(C)C [TENOFOVIR DISOPROXIL]
- logD [3]: 1.26
- logD [7]: 1.26

SMILES: CCOP(=O)(OCC)OCC [TRIETHYL PHOSPHATE]
- pKHB [4]: 2.574

SMILES: COP(=O)(OC)OC [TRIMETHYL PHOSPHATE]
- logP [1]: -0.4
